# Data from US7067619B2, “Integrin-binding peptides” (La Jolla Cancer Research Foundation, priority 1993, dated 2006).
# Bridge positions count the residues as written; N and C are the ends. Ends that are not written are not given here. Peptide text beside a SMILES is read from it.
# Experiments:
# α5β1 integrin [1] = experiment: Inhibition of α5β1-mediated cell attachment to fibronectin; format: cell-based, human
# Description: Cell lines expressing different integrins were used to examine peptide inhibition of integrin function. A human melanoma cell line, C8161, a fibroblast cell line, WI-38, and an osteosarcoma cell line, MG-63 (described by Seftor et al., Canc. Res., 53:3411–3415 (1993); Vogel et al., J. Biol. Chem., 265:5934–5937 (1990); and Pytela et al. (1985), supra, respectively, each of which is incorporated herein by reference) attach to fibronectin through α5β1 integrin, as does B2/α27, a CHO cell line transfected with human α5. B2/C1, the control parental CHO line (Bauer et al., J. Cell. Biol. 116:477–487 (1992), which is incorporated herein by reference), attaches via […]. CHO cells C11 and NIH 3T3 cells express the endogenous Chinese hamster and mouse α5β1 integrins, respectively. The human melanoma cells, A375-M, attach to fibronectin through both α5β1 and α4β1 integrins (Mould et al., J. Biol. Chem. 265:4020–4024 (1990), which is incorporated herein by reference). CHO cell line B2/v7 express the αvβ1 integrin (Zhang et al., J. Cell. Biol. 122:235–242 (1993), which is incorporated herein by reference). The vitronectin-binding integrins […] and αvβ3 were assayed using the cell line HT-29 and IMR-90, respectively (Koivunen et al., J. Biol. Chem. 268: 20205–20210 (1993)).
# (§1) Cell lines expressing fibronectin-binding integrins were used to determine peptide activities against these integrins in the cell attachment assay described by Ruoslahti et al., Meth. Enzymol., 144:803–831 (1982), which is incorporated herein by reference. Human plasma fibronectin was iodinated as described by Morla and Ruoslahti, J. Cell Biol., 118:421–429 (1992), which is incorporated herein by reference. Vitronectin was obtained from Telios Pharmaceuticals (San Diego, Calif.). […] Peptide was coated on plastic by incubating at 37° C. for 2 hours in phosphate buffered saline containing 0.25% glutaraldehyde to crosslink the peptide. Free binding sites on the plastic were blocked using BSA. Approximately 1×10^5 cells per well were allowed to attach for 1 hour in the presence or absence of competing peptides. Bound cells were quantitated by staining with 0.1% amido black.
# Inhibition of cell attachment mediated by either fibronectin- or vitronectin-binding integrins was performed to determine peptide specificity in a biologically relevant system. The assays and cell lines were performed as described above. FIGS. 5 and 6 show the results of cell attachment mediated by the fibronectin binding integrins α5β1 and αvβ1.
# α5β1 integrin [2] = biological target: T1, α5β1 integrin (Homo sapiens, UniProt P05556+P08648); experiment: Inhibition of peptide-displaying phage binding to α5β1 integrin by synthetic peptides; conditions: for binding affinity for α5β1: high binding affinity defined as IC50 of 1×10^−7 M or less in a competitive binding assay
# T1 construct: The αvβ3, αvβ5 and α5β1 integrins were isolated from human placental extracts; from tissue; host or cells: human placenta
# Procedure: Phage clone containing the RGDGW [SEQ ID NO:9] sequence was incubated for 1 hour in integrin-coated microliter wells in the presence of the competing peptides. After extensive washing, the phage remained bound were determined as described in Example XII.
# In addition, most of the phage-binding activity in the αvβ3 preparation was captured into microliter wells coated with antibodies against the αv or β3 subunits as described previously (Koivunen et al., J. Biol. Chem., 268:20205–10 (1993). The αIIbβ3 integrin was isolated from outdated platelets (Pytela et al., Science, 231:1559–1562 (1986)).
# Binding of individual cloned phage to integrins was studied in microliter wells as described in Koivunen et al., J. Cell. Biol., 124:373–380 (1994). Phage binding to α5β1 and αvβ3 were assayed in TBS buffer containing 1% BSA and 1 mM MnCl2 and binding to αvβ5 in the presence of 1 mM CaCl2. Phage that were bound were determined by their ability to infect F-pilus positive K91kan bacteria. Bacteria were grown overnight in microliter wells in the presence of tetracycline and the absorbance indicative of bacterial growth was read at 600 nm with an ELISA plate reader.
# Relative affinities of the […] [SEQ ID NO:12] and CRGDC [SEQ ID NO:37] peptides were determined by inhibition of binding of peptide-displaying phage to α5β1 integrin. Peptide-displaying phage were constructed as described by Scott and Smith, Science 249:386–390 (1990) and Example IV. Microwell plates were coated with various integrins as described by Koivunen et al., J. Biol. Chem., 268:20205–10 (1993) and Example II.
# The binding of […] [SEQ ID NO:12]-containing peptide ligands to α5β1 integrin was performed as follows. RRETAWA [SEQ ID NO:8]-displaying phage were incubated for 1 hour in the presence of various concentrations of the cyclic peptides containing […] [SEQ ID NO:12] and containing CRGDC [SEQ ID NO:37] in microliter wells coated with the α5β1 integrin. Binding was quantitated by adding K91kan bacteria directly to the wells and growing the bacteria overnight at room temperature (Smith and Scott, Meth. Enzymol., 217:228–257 (1993), which is incorporated herein by reference).
# Additional peptide motifs were tested as follows. ELRGDGW-displaying [SEQ ID NO:4] phage were added together with various concentrations of the cyclic peptides containing […] [SEQ ID NO:12] and containing CRGDC [SEQ ID NO:37] into microliter wells coated with the α5β1 integrin, incubated for 1 hour at room temperature and binding to wells was quantitated.
# αvβ1 integrin = experiment: Attachment of αvβ1-expressing B2/v7 cells to immobilized […] peptide; format: cell-based
# Description: as §1
# In addition to the inhibition of cell attachment to natural ligands, attachment and inhibition assays were performed using the […] [SEQ ID NO:6] peptide as substrate. The microliter well were coated with […] [SEQ ID NO:6] using glutaraldehyde as described above. […] Bound cells were quantitated by staining with 0.1% amido black.
# T1 sequence (P08648 42-894 limits assumed): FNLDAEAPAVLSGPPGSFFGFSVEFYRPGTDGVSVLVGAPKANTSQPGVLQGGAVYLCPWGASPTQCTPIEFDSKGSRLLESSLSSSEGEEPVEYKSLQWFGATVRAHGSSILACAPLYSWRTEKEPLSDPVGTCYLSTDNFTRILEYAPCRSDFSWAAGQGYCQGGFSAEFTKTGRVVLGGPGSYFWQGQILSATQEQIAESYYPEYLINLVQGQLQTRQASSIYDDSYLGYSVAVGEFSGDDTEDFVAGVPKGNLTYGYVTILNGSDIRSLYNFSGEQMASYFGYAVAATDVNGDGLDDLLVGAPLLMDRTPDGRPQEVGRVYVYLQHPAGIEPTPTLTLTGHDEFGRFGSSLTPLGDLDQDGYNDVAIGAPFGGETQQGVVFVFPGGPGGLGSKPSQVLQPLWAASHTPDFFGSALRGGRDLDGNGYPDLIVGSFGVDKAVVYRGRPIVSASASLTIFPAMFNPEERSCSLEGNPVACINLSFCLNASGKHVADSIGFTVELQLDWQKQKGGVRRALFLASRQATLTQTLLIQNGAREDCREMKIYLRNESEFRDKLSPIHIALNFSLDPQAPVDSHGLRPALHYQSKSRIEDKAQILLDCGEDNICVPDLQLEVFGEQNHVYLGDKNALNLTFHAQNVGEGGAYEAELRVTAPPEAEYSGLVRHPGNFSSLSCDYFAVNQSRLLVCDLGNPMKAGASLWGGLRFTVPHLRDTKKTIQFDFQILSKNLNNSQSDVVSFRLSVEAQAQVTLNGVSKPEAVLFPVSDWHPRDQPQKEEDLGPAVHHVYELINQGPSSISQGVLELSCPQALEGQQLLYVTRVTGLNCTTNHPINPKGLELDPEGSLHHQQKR
# T1 sequence (P08648 895-1049 partner limits assumed): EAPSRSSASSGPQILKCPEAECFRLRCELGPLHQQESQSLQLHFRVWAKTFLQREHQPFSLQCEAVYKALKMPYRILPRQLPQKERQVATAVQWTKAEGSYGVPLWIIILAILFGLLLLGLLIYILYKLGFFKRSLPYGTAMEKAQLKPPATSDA
# T1 sequence (P05556 21-798): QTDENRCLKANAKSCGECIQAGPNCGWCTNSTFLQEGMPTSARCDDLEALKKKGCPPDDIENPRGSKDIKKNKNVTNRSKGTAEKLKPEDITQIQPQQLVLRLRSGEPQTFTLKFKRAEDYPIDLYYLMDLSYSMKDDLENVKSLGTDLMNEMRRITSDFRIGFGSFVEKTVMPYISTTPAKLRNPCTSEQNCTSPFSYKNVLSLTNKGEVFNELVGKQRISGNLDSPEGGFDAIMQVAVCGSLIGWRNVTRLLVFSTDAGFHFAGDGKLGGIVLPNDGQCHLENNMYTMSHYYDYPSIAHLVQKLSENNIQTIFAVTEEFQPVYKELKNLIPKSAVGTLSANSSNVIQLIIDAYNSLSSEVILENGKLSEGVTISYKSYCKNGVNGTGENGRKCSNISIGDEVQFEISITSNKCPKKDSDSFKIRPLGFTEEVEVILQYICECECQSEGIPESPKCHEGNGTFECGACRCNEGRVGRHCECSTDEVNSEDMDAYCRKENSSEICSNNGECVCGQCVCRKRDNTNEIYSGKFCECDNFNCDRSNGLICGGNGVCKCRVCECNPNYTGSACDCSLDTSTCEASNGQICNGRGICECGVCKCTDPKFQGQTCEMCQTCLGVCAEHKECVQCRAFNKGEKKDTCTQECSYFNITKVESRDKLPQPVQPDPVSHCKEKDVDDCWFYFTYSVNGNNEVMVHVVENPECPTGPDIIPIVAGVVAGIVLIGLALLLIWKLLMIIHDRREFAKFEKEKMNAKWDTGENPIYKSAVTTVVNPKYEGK
molecule,measurement,setting,value
"C[C@H](N)C(=O)N[C@H]1CSSC[C@@H](C(=O)NCC(=O)O)NC(=O)[C@H](Cc2ccccc2)NC(=O)[C@@H]2CSSC[C@H](NC(=O)[C@H](CC(=O)O)NC1=O)C(=O)N[C@@H](CCCNC(=N)N)C(=O)NCC(=O)N[C@@H](CC(=O)O)C(=O)N2 (H-ACDCRGDCFCG-OH; disulfide 2-10, 4-8)",activity toward α5β1 compared to *CRGDC*,α5β1 integrin [1]; cell attachment to fibronectin,significantly decreased activity
same,activity toward α5β1 compared to linear GRGDSP,α5β1 integrin [1]; cell attachment to fibronectin,only slightly better
A*CPSRLDSPC*G (ACPSRLDSPCG; disulfide 2-10 (inferred)),inhibition of RGD phage binding to α5β1,"α5β1 integrin [2]; RGDGW phage, FIG. 9",no inhibition
GACRRETAWACGA,peptide coating concentration required to produce significant attachment,αvβ1 integrin,1 mg/mL
same,inhibition of cell attachment to a 110 kDa fragment of fibronectin,α5β1 integrin [1]; 110 kDa fragment containing the cell attachment domain,inhibited
same,inhibition of attachment of A375-M cells to fibronectin,α5β1 integrin [1]; A375-M cells (also express α4β1),only partially inhibited
same,efficiency at inhibiting binding to α5β1 compared with cyclic CRGDCL peptide,"α5β1 integrin [1]; B2/α27 cells, fibronectin, FIG. 5",more efficient
same,binding activity following reduction of the disulfide bond and alkylation of the cysteine residues,α5β1 integrin [1]; linearized vs cyclic peptide,greatly decreased
same,reduction of activity after reduction and alkylation of the disulfide bond,α5β1 integrin [1]; linearized vs cyclic peptide,about 50 ×
same,inhibition of binding of ELRGDGW-displaying phage to α5β1 integrin,"α5β1 integrin [2]; ELRGDGW-displaying phage, CRRETAWAC compared with CRGDC, FIG. 2",approximately the same degree
same,efficiency of inhibition of RRETAWA-displaying phage binding to α5β1 relative to CRGDC containing peptides,"α5β1 integrin [2]; RRETAWA-displaying phage, comparator CRGDC, FIG. 4",at least 10 times
same,binding affinity for α5β1,α5β1 integrin [2]; listed as CRRETAWAC,high binding affinity
same,binding affinity for α5β1,α5β1 integrin [2]; listed as GA*CRRETAWAC*GA,high affinity
